Measured values reported in US20250340939A1 (priority 2021, published 2025).
“Also recorded” adds a separate entry of the source. Like-named read-outs stand apart in the source and are kept apart here.

Experiments:
Format in all cases: binding
16S rRNA (E. coli) = assay: MST of Cy5 probes hybridized with total bacterial RNA; conditions: 100 μM Dox, red mode
Protocol: For bacterial RNA extraction, DH5α E. coli cells transfected with pcDNA3.1+ plasmid were grown overnight in LB medium containing 100 μg/ml ampicillin. The concentration of bacterial cells was determined according to OD at 600 nm, and ˜7·10^8 cells were taken for RNA extraction. 1 volume of bacterial culture was mixed with 2 volumes of RNAprotect® Bacteria Reagent (QIAGEN), vortexed for 5 seconds and incubated for 5 minutes at room temperature. The sample was then centrifuged for 10 minutes at 5,000×g at room temperature. After discarding supernatant, the pellet was resuspended in 100 μl TE buffer (10 mM Tris-HCl, 1 mM EDTA, pH 8) containing 1 mg/ml lysozyme. The samples were vortexed for 5 seconds, and then incubated at room temperature for 10 minutes with vortexing every 2 minutes. 1 ml TRIzol™ reagent was added to the sample. The sample was incubated at room temperature for 5 minutes, and then RNA extraction was performed as described hereinabove.
(§1) RNA was extracted from a sample, and after extraction, the RNA pellet was solubilized and hybridized with a specific fluorescently labeled DNA probe in a hybridization solution (as schematically depicted in FIG. 1). After hybridization, the hybridized sample was loaded into an MST capillary and inserted into a Monolith™ MST instrument (NanoTemper Technologies GmbH, Germany). This instrument included a blue mode (493 nm excitation, […]) and red mode ([…], 670 nm emission) for detection, and an I.R laser (1475 nm+/−15 nm) for heating. The intensities for both fluorescence detection (LED) and IR laser are adjustable, in a range of 0%-100%, wherein the temperature gradient generated has a temperature difference of up to about 2-8° C. Thermophoretic force was induced by infrared laser after 1 second, and maintained for 2 seconds, for a total of a 3 second measurement window (measurement time may optionally be further reduced to 2 seconds using current available MST instruments).
For RNA titration measurements, the extracted RNA solution was diluted to X2 and a serial dilution was prepared in water. Hybridization solutions were prepared as described herein, were X1 solution consisted of SSC buffer X1, 0.05% TWEEN™ 20 surfactant, and 1% formamide unless indicated otherwise. Fluorescently labeled probes were diluted from a 100 μM stock to 1:2400 in hybridization solution X2, denatured for 5 minutes at 100° C. and then incubated on ice for 5 minutes. If a mixture of uniformly labeled probes was prepared, the probes were diluted to a 1:1200 dilution in water and then diluted to 1:2400 with hybridization solution X4 (1:1/number of probes) to create equal molarity of the fluorescent dye. The probe solution was combined with the titration series in a 1:1 (v/v) ratio (10 μL total volume) and allowed to hybridize at a defined temperature for a given time as described. If post-hybridization with intercalating agents (ICA), doxorubicin or Midori™ Green, was performed, the samples were combined with ICA X5 solution 4:1 (v:v) ratio, 8 μL and 2 μL respectively. For cell based measurements, after extraction, the RNA pellet was solubilized and hybridized with a specific fluorescently labeled DNA probe in a hybridization solution (as schematically depicted in FIG. 1).
In order to determine the optimal hybridization temperature, one of the designed probes (16S1^Cy5) was incubated with increasing concentrations of bacterial RNA at different temperatures for 10 minutes. MST measurements were then performed using the red wavelength acquisition mode.
In order to assess the effect of human RNA presence and Dox post-hybridization on signal response, 16S1^Cy5 was incubated with increasing concentrations of bacterial or human total RNA at 71° C. for 2 hours. Equal amounts were then taken for post-hybridization incubation with Dox or hybridization buffer as a control. […]

18S rRNA (human) = assay: MST of probe hybridized with human RNA extracted from HEK 293T cells
Description: as §1
For RNA titration measurements, the extracted RNA solution was diluted to X2 and a serial dilution was prepared in water. Hybridization solutions were prepared as described herein, were X1 solution consisted of SSC buffer X1, 0.05% TWEEN™ 20 surfactant, and 1% formamide unless indicated otherwise. Fluorescently labeled probes were diluted from a 100 μM stock to 1:2400 in hybridization solution X2, denatured for 5 minutes at 100° C. and then incubated on ice for 5 minutes. […]
As depicted in FIG. 3, fluorescent signals were quantified in the 1 second before application of a temperature gradient (Fcold) and between 1 and 2 seconds after application of the temperature gradient (Fhot). […]
As the probes are tagged with different florescent dyes, 18S^ATTO488 can be used as a control for the RNA extraction process. […] The signals of 18S^ATTO488 were measured using a blue wavelength acquisition mode and S^Cy5 using a red wavelength acquisition mode. […]

S-gene RNA (SARS-CoV2) = conditions: for direction of thermophoretic flux / dependence of thermophoretic signal on S-gene RNA concentration: in the presence of 100 μM Dox; for direction of thermophoretic flux: increasing S-gene; for ΔFnorm (signal response): FIG. 37; for dependence of thermophoretic/fluorescent signal on S-gene RNA concentration: no intercalating agent, red wavelength acquisition mode
HA gene (H1N1 influenza) = system: HA gene (H1N1 influenza)
S-HA gene = assay: MST of probes with artificial S-HA gene RNA (target length effect)
control RNA = assay: MST of probes incubated with control RNA (specificity); conditions: in the presence of 100 μM Dox; red mode

16S2^Cy5: Cy5-labeled 44 nucleotide DNA probe (SEQ ID NO: 10) complementary to E. coli 16S rRNA (DNA GCGGCCGTACTCCCCAGGCGGTCGACTTAACGCGTTAGCTCCGG; DNA, backbone not given here; Cy5 dye label)
direction of thermophoretic migration (MST curves) (16S rRNA (E. coli)): migrated towards the heating zone both in the presence of bacterial RNA

16S4^Cy5: Cy5-labeled 36 nucleotide DNA probe (SEQ ID NO: 12) complementary to E. coli 16S rRNA (DNA GGCAGTCTCCTTTGAGTTCCCGGCCGGACCGCTGGC; DNA, backbone not given here; Cy5 dye label)
direction of thermophoretic migration (MST curves) (16S rRNA (E. coli)): A similar effect was observed

16S7^Cy5: Cy5-labeled 45 nucleotide DNA probe (SEQ ID NO: 15) complementary to E. coli 16S rRNA (DNA CCCCCTCCATCAGGCAGTTTCCCAGACATTACTCACCCGTCCGCC; DNA, backbone not given here; Cy5 dye label)
direction of thermophoretic migration (MST curves) (16S rRNA (E. coli)): migrated towards the heating zone in the presence of increasing concentrations of bacterial RNA, but away from the heating zone in the absence of bacterial RNA
sensitivity to target RNA concentration (linear regression slope) (16S rRNA (E. coli); single probes, 10 minutes hybridization): significantly more sensitive to target RNA concentration than the other tested probes

18S^ATTO488: probe with SEQ ID NO: 6 tagged with blue fluorescent dye ATTO 488, targets human 18S rRNA (DNA AGGGGCTGACCGGGTTGGTTTTGATCTGATAAATGCACGCATCCCC; ATTO 488 label; misc_feature 1..46 ATTO488 labeled; DNA sequence complementary to nucleotides 205-250 of SEQ ID NO: 5)
selectivity of signal response to target RNA (18S rRNA (human); 100 ng/μl HEK 293T RNA vs 400 ng/μl S-gene, 400 ng/μl control RNA or no RNA, blue mode): selective signal responses to their target RNA
dependence of fluorescent signal on complementary RNA dose (18S rRNA (human); RNA extracted from HEK 293T cells, blue mode): dependent on the dose of complementary RNA
concomitant detection of 18S rRNA in human extracted RNA (18S rRNA (human); mixed with S^Cy5, hybridization at 42° C. for 30 minutes): effective and quantitative

HA^ATTO488: DNA having SEQ ID NO: 8 tagged with blue fluorescent dye ATTO 488, targets H1N1 HA-gene (DNA TGAAGCCGGCAATGGCCCCGAATAGGCCTCTAG; ATTO 488 label; misc_feature 1..33 DNA sequence complementary to nucleotides 567-599 of SEQ ID NO: 7 (nucleotides 1048-1080 of Influenza A H1N1 HA gene; ATTO488 labeled)
dependence of signal on S-gene concentration (off-target) (S-gene RNA (SARS-CoV2); SSC X1, 10% (v/v) formamide, blue mode): not on the concentration of S-gene or control RNA
effect of higher saline sodium citrate buffer concentration on detection sensitivity (HA gene (H1N1 influenza); SSC X1, X2, X4, blue mode): increased detection sensitivity
dependence of signal on HA-gene concentration (HA gene (H1N1 influenza); blue mode): dose-dependent signal; also recorded: dependent on the concentration of HA-gene

SE^Cy5: Cy5-tagged 22 nucleotide DNA probe (SEQ ID NO: 3) designed to bind at the edge of the S-gene (DNA CAATATCACCAAGGCAATCACC; DNA, backbone not given here; Cy5 dye label)
direction of thermophoretic flux (S-gene RNA (SARS-CoV2); red mode): directed away from the heating zone
ΔFnorm (signal response) (S-gene RNA (SARS-CoV2); no Dox): 54.41 ‰
dependence of thermophoretic/fluorescent signal on S-gene RNA concentration (S-gene RNA (SARS-CoV2)): exhibited a thermophoretic signal dependent on S-gene RNA concentration
maximum signal response, S-gene vs S-HA gene (S-HA gene; red mode, FIG. 55): considerably stronger in the presence of S-gene than in the presence of S-HA

SN^Cy5: Cy5-tagged 22 nucleotide "non-binding" DNA probe (SEQ ID NO: 4), negative control (DNA CACCATTAGTGGGTTGGAAACC; DNA, backbone not given here; Cy5 dye label)
dependence of thermophoretic signal on S-gene RNA concentration (S-gene RNA (SARS-CoV2); red mode): not affected by RNA concentration
dependence of thermophoretic/fluorescent signal on S-gene RNA concentration (S-gene RNA (SARS-CoV2)): exhibits no change in MST signal; also recorded: no dependence; also recorded: did not generated dose-dependent signals

S^Cy5: 33 base DNA (SEQ ID NO: 2) tagged with red dye Cy5, binds the middle of SARS-CoV2 S-gene RNA (DNA GGATTGACTAGCTACACTACGTGCCCGCCGAGG; DNA, backbone not given here; Cy5 dye label)
average maximum ΔFnorm (S-gene RNA (SARS-CoV2)): 547.1 ‰
selectivity of signal response to target RNA (S-gene RNA (SARS-CoV2)): selective signal responses to their target RNA
direction of thermophoretic flux (S-gene RNA (SARS-CoV2); red mode): towards the heating zone
dependence of thermophoretic signal on S-gene RNA concentration (S-gene RNA (SARS-CoV2); red mode): altered by S-gene RNA in a dose-dependent manner
Z′-factor (S-gene RNA (SARS-CoV2); maximum signal response with S-gene compared to no RNA control): 0.85
concomitant detection of S-gene in presence of human extracted RNA (S-gene RNA (SARS-CoV2); mixed with 18S^ATTO488, hybridization at 42° C. for 30 minutes): effective and quantitative
ΔFnorm (signal response) (S-gene RNA (SARS-CoV2); no Dox): 110.63 ‰
average maximum ΔFnorm (S-gene RNA (SARS-CoV2); no Dox, red mode): 116.5 ‰
dependence of thermophoretic/fluorescent signal on S-gene RNA concentration (S-gene RNA (SARS-CoV2)): dependent on the dose of complementary RNA; also recorded: exhibited a thermophoretic signal dependent on S-gene RNA concentration
signal response to HA-gene (off-target) (HA gene (H1N1 influenza); red mode, data not shown): no response in signal was observed
sensitivity (slope at low RNA levels), S-HA-gene vs S-gene (S-HA gene): considerably greater sensitivity than towards S-gene
affinity towards S-HA gene compared with S-gene (S-HA gene; red mode, FIG. 55): higher affinity towards S-HA gene than to S-gene
maximum signal response, S-gene vs S-HA gene (S-HA gene; red mode, FIG. 55): did not differ
effect of control RNA on probe signal (control RNA): no effect
